Publication PMC3116082 (Journal of the American Chemical Society, 2011)

Key:
Format in all cases: biochemical
[1] = target: T1, ThiSG (thiazole synthase) (Bacillus subtilis, UniProt O31618); assay: thiazole reconstitution, strong anion exchange HPLC; details: without TenI; ThiF, NifS, ThiO, cysteine, ATP, glycine, DXP
T1 sequence (O31618 1-256): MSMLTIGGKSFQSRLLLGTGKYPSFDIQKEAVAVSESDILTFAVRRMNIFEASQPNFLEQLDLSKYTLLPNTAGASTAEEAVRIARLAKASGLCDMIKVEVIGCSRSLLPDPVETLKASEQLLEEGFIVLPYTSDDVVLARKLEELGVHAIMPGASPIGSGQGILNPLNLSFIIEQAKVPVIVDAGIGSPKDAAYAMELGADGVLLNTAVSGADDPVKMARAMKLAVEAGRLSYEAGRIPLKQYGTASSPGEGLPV
T1 sequence (O31617 1-66 partner): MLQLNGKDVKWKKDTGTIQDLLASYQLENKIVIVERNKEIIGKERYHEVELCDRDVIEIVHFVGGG

[2] = target: thiamin phosphate synthase (ThiE) (Bacillus subtilis, UniProt P39594); assay: thiochrome assay, HPLC with fluorescence detection; details: co-substrate HMP-PP
thiamin phosphate synthase (ThiE), sequence (P39594 whole entry): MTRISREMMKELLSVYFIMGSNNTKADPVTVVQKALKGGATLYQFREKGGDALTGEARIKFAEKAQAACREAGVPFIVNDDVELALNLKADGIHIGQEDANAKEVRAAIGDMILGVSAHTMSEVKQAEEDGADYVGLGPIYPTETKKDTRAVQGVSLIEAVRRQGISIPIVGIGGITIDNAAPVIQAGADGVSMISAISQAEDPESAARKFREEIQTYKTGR

ThiO = target: T2, ThiO (Bacillus subtilis, UniProt O31616); assay: H2O2 formation, HRP-coupled absorbance at […] nm; details: 0.1-10 mM glycine, without TenI
T2 sequence (O31616 1-369): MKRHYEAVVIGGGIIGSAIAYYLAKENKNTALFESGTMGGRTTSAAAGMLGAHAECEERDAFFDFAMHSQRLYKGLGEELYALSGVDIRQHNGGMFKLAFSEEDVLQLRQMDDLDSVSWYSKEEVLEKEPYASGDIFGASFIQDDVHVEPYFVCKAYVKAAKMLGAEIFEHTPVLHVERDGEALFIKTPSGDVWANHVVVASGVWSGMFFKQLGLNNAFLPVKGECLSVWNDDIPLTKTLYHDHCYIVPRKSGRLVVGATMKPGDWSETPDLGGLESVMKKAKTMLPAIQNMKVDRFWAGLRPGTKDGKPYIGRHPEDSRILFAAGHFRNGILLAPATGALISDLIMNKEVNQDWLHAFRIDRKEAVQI

SMILES	thiochrome assay, HPLC with fluorescence detection [2]	other results
CC1=N[C@@H](C(=O)O)S/C1=C\COP(=O)(O)O [compound 14, (R,Z)-2-(2-carboxy-4-methylthiazol-5(2H)-ylidene)ethyl phosphate]	–	thiazole reconstitution, strong anion exchange HPLC [1]: In the absence of TenI, cThz*-P was the only thiazole product formed
Cc1ncsc1CCOP(=O)(O)O [compound 15, 2-(4-methylthiazol-5-yl)ethyl phosphate]	cThz-P and Thz-P are significantly better substrates than cThz*-P	–
Cc1nc(C(=O)O)sc1CCOP(=O)(O)O [compound 16, 2-(2-carboxy-4-methylthiazol-5-yl)ethyl phosphate]	cThz-P and Thz-P are significantly better substrates than cThz*-P	–
NCC(=O)O [compound 19, glycine]	–	H2O2 formation, HRP-coupled absorbance at 500 nm (ThiO): the rate of hydrogen peroxide production with increasing concentrations of glycine was unaffected by TenI
